What all share (assay): NCI-60 cell line screen, 48 h
The subject of experiment [1] is BT-549.
The subject of experiment [2] is HOP-92.
Experiment [3] relates to HT-29.
Experiment [4] has as its system Hs-578T.
Experiment [5] has as its system K562.
Experiment [6] deals with KM12.
In experiment [7] the test system is MDA-MB-435.
Experiment [8] concerns MOLT-4.
Experiment [9] relates to OVCAR-4.
For experiment [10], the system named is OVCAR-8.
Experiment [11] deals with PC-3.
In experiment [12] the test system is SF-268.
For experiment [13], the system named is SK-MEL-2.
In experiment [14] the test system is SK-MEL-5.
In experiment [15] the test system is SNB-19.
Experiment [16] relates to SNB-75.
The subject of experiment [17] is SR.
The test system of experiment [18] is SW-620.
The test system of experiment [19] is TK-10.
The subject of experiment [20] is UACC-257.

Molecules are shown by their SMILES.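 Cells were grown in 96-well plates and exposed to each compound for 48 hours at five concentrations; endpoints were interpolated linearly between bracketing concentrations, or set to the highest concentration if not reached. GI50 marks 50% less growth.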 Activity calls are given as the source filed them. Rule as the data show it: active = GI50 up to about 1.1 µM and inactive = higher. A value given as a limit tells only on which side of the number the result lay.

`Cc1cc(S(=O)(=O)Nc2nnc3cc(C(F)(F)F)cc(C)n23)c(S)cc1Cl`: the GI50 was > 35.2 µM (inactive) in experiment [1]; > 76.9 µM (inactive) in experiment [2]; > 100 µM (inactive) in [3]; > 72.4 µM (inactive) in [4]; > 100 µM (inactive) in experiment [5]; 45.6 µM (inactive) in experiment [6]. For the same compound, the GI50 was > 65.8 µM (inactive) in experiment [7]; > 100 µM (inactive) in experiment [8]; > 100 µM (inactive) in experiment [9]; > 100 µM (inactive) in experiment [10]; > 95.3 µM (inactive) in experiment [11]; > 100 µM (inactive) in [12]. In addition, the GI50 was 30.7 µM (inactive) in [13]; 64.4 µM (inactive) in experiment [14]; 27.5 µM (inactive) in experiment [15]; > 71.1 µM (inactive) in [16]; > 100 µM (inactive) in experiment [17]; > 100 µM (inactive) in experiment [18]. Besides, the GI50 in experiment [19] and in [20] was > 100 µM (inactive) each time.

Regarding `COc1c(O)c2ccccc2c2cc(O)ccc12`, the GI50 in experiment [1] is 2.43 µM (inactive); in experiment [2] it was 10.6 µM (inactive); in [3], 21 µM (inactive); in experiment [4], 17.4 µM (inactive); in experiment [5] it was 2.72 µM (inactive); in [6] it was 11.6 µM (inactive). For the same compound, the GI50 in experiment [7] was 1 µM (active); in experiment [8], 8.61 µM (inactive); in [9], 6.56 µM (inactive); in [10], 3.88 µM (inactive); in [11], 16.6 µM (inactive); in [12] it was 10.8 µM (inactive). Also, the GI50 was 4.79 µM (inactive) in experiment [13]; 2.17 µM (inactive) in [14]; 13.6 µM (inactive) in experiment [15]; 8.17 µM (inactive) in [16]; 12.4 µM (inactive) in experiment [17]; 3.18 µM (inactive) in experiment [18]. In addition, the GI50 was 25.4 µM (inactive) in experiment [19] and 2.1 µM (inactive) in [20].

On to `COc1ccc(/N=C(C)/C(C)=N/c2ccc(OC)cc2)cc1`, for which the GI50 was 3.78 µM (inactive) in experiment [1]; 88.1 µM (inactive) in [2]; 48.6 µM (inactive) in experiment [3]; > 100 µM (inactive) in experiment [4]; 64.9 µM (inactive) in experiment [5]; 6.85 µM (inactive) in [6]. Besides, the GI50 in experiment [7] was 8.95 µM (inactive); in experiment [8] it was 15.6 µM (inactive); in [9], 17.7 µM (inactive); in [10], 58.6 µM (inactive); in experiment [11] it was 40.7 µM (inactive); in [12], 52.5 µM (inactive). In addition, the GI50 in [13] was > 100 µM (inactive); in [14] it was 64 µM (inactive); in experiment [15] it was > 100 µM (inactive); in experiment [16] it was > 100 µM (inactive); in experiment [17] it was 65.6 µM (inactive); in experiment [18], 63.1 µM (inactive). Also, the GI50 in experiment [19] is > 100 µM (inactive); in experiment [20] it was 56.9 µM (inactive).

As for `O=C(N/N=C/c1c(-c2ccccc2)no[n+]1[O-])N1CCOCC1`, the GI50 in experiment [1], in experiment [2], in [3], in experiment [4], in experiment [5] and in experiment [6] was > 100 µM (inactive) each time. In addition, the GI50 is > 100 µM (inactive) in experiment [7]; 26.3 µM (inactive) in experiment [8]; > 100 µM (inactive) in experiment [9]; > 100 µM (inactive) in experiment [10]; > 100 µM (inactive) in experiment [11]; > 100 µM (inactive) in [12]. Further, the GI50 in experiment [13] was > 100 µM (inactive); in [14], > 100 µM (inactive); in experiment [15] it was > 100 µM (inactive); in experiment [16], > 100 µM (inactive); in [17], 0.264 µM (active); in experiment [18] it was > 100 µM (inactive). The GI50 in experiment [19] and in experiment [20] was > 100 µM (inactive) throughout.

Consider `COC(=O)CN1SC2(SC13C(C)(C)C(=O)C3(C)C)C(C)(C)C(=O)C2(C)C`, for which the GI50 in [1] is 27.8 µM (inactive); in [2] it was 0.0244 µM (active); in experiment [3] it was > 100 µM (inactive); in experiment [4] it was > 100 µM (inactive); in experiment [5], 52.6 µM (inactive); in experiment [6] it was 44.6 µM (inactive). Also, the GI50 in [7] was 56.2 µM (inactive); in experiment [8], 37 µM (inactive); in experiment [9], > 100 µM (inactive); in experiment [10] it was 64.4 µM (inactive); in experiment [11], 29.2 µM (inactive); in experiment [12], 36.1 µM (inactive). Moreover, the GI50 in experiment [13] is 60.7 µM (inactive); in experiment [14] it was 35.2 µM (inactive); in [15] it was > 100 µM (inactive); in experiment [16], 37.8 µM (inactive); in [17], 81.8 µM (inactive); in experiment [18], 68.7 µM (inactive). Further, the GI50 is > 100 µM (inactive) in experiment [19] and 48.2 µM (inactive) in experiment [20].

Take `O=c1cc(-c2ccccc2)[nH]c2ccc(N3CCOCC3)cc12`: the GI50 in experiment [1] was 23.8 µM (inactive); in [2], 0.0622 µM (active); in experiment [3], 0.0211 µM (active); in experiment [4], 0.0239 µM (active); in experiment [5], < 0.0127 µM (active); in experiment [6] it was < 0.0171 µM (active). For the same compound, the GI50 in experiment [7] is < 0.01 µM (active); in experiment [8] it was 0.104 µM (active); in experiment [9], 20.1 µM (inactive); in [10], 0.042 µM (active); in experiment [11], 0.0346 µM (active); in experiment [12], 0.0407 µM (active). In addition, the GI50 in [13] is 22.5 µM (inactive); in experiment [14] it was < 0.0233 µM (active); in experiment [15], 0.0434 µM (active); in [16] it was 0.0143 µM (active); in experiment [17] it was < 0.017 µM (active); in [18], 0.0371 µM (active). For the same compound, the GI50 in experiment [19] is 55 µM (inactive); in experiment [20], > 100 µM (inactive).

For `N#Cc1ccc(Oc2nc3ccccc3nc2C(=O)O)cc1`, the GI50 in [1], in experiment [2], in experiment [3], in experiment [4], in experiment [5] and in experiment [6] was > 100 µM (inactive) in each case. Further, the GI50 in [7], in [8], in experiment [9], in experiment [10], in experiment [11] and in [12] was > 100 µM (inactive) in each case. In addition, the GI50 in [13], in experiment [14], in experiment [15], in experiment [16], in experiment [17] and in [18] was > 100 µM (inactive) in each case. Moreover, the GI50 in experiment [19] and in [20] was > 100 µM (inactive) each time.

Turning to `COc1cc2c(c(OC)c1OC)C(=O)c1c(O)cc(C)c(OC)c1C2=O`, the GI50 in experiment [1] was > 100 µM (inactive); in experiment [2], > 100 µM (inactive); in experiment [3], > 100 µM (inactive); in experiment [4], 15.6 µM (inactive); in experiment [5], > 10 µM (inactive); in [6], > 100 µM (inactive). The GI50 in experiment [7] is 91.8 µM (inactive); in experiment [8], > 100 µM (inactive); in experiment [9], > 100 µM (inactive); in [10], > 100 µM (inactive); in experiment [11], > 100 µM (inactive); in [12], > 100 µM (inactive). The GI50 in experiment [13] is 88.1 µM (inactive); in experiment [14], 39.4 µM (inactive); in [15] it was 77.1 µM (inactive); in [16] it was > 100 µM (inactive); in [17] it was > 100 µM (inactive); in [18], > 100 µM (inactive). Also, the GI50 in experiment [19] is 27.2 µM (inactive); in experiment [20], 54.6 µM (inactive).

On to `CCOC(=O)c1ccc2nc(NC(=O)COC(=O)CSc3nc(C)cc(C)n3)sc2c1`, for which the GI50 in experiment [1] was 31.2 µM (inactive); in experiment [2], 24.8 µM (inactive); in [3], 66.2 µM (inactive); in experiment [4] it was 36 µM (inactive); in experiment [5], > 100 µM (inactive); in experiment [6] it was > 100 µM (inactive). In addition, the GI50 is > 100 µM (inactive) in experiment [7]; 42.5 µM (inactive) in experiment [8]; 42.9 µM (inactive) in experiment [9]; 57.9 µM (inactive) in [10]; 40.2 µM (inactive) in [11]; 67.8 µM (inactive) in [12]. Also, the GI50 in experiment [13] was > 100 µM (inactive); in experiment [14], 53.3 µM (inactive); in experiment [15] it was 37.8 µM (inactive); in [16], 16.4 µM (inactive); in experiment [17], 52.7 µM (inactive); in experiment [18] it was > 100 µM (inactive). Also, the results for the GI50 in [19] and in [20] were 29.3 µM (inactive) and > 100 µM (inactive), respectively.

Consider `COc1ccc(C2=NNC(=O)c3ccccc3N2c2nc(-c3cccs3)nc3ccc(Br)cc23)cc1`, for which the GI50 is 37.5 µM (inactive) in experiment [1]; > 100 µM (inactive) in experiment [2]; > 100 µM (inactive) in experiment [3]; 35.1 µM (inactive) in [4]; 99.5 µM (inactive) in [5]; 61.5 µM (inactive) in experiment [6]. For the same compound, the GI50 in experiment [7] is > 100 µM (inactive); in experiment [8], 65.8 µM (inactive); in [9], 39.8 µM (inactive); in experiment [10], 53.5 µM (inactive); in [11] it was 24.7 µM (inactive); in experiment [12] it was 31 µM (inactive). Further, the GI50 in experiment [13] was 78.9 µM (inactive); in [14], > 100 µM (inactive); in [15], 30.1 µM (inactive); in experiment [16] it was 41.4 µM (inactive); in experiment [17], 42 µM (inactive); in [18], 91.4 µM (inactive). The GI50 in experiment [19] was 28.2 µM (inactive); in [20], 51.9 µM (inactive).

The values are drawn from ChEMBL document CHEMBL1201862, “PubChem BioAssay data set” (2004).
